Reference: US20240150356A1, “Pyrimidine amide compounds and use thereof” (ALPHALA CO., LTD., priority 2019, published 2024)
Read-outs that look alike come from different tables or passages of the source.

Key:
Format in all cases: cell-based
[1] = test system: SW480 (colon adenocarcinoma cell line); experiment: In vitro MTS cell viability assay (NCI-60 methodology), SW480; details: Homo sapiens, SW480 cells, read-out: SW480 LC50
Experimental: (§1) The cell viability measurement is based on the NCI-60 screening methodology (Nat. Rev. Cancer 6, 813-823, 2006). Briefly, cells are inoculated into 96-well plates at the optimal plating density. After 24 h, one of the two plates for Hep3B cell line is processed to determine a time zero cell viability (Tz) by MTS assay (Promega). Compounds are added over a 2-fold serial dilution to provide a total five drug concentrations plus DMSO control. Plates are incubated for a further 2 days, then measured cell viability by MTS assay [control growth (C) and test growth in the presence of drug at the five concentration levels (Ti)]. The LC50 is calculated from [(Ti−Tz)/Tz]×100=−50, which is the drug concentration resulting in a 50% reduction at the end of the drug treatment as compared to that at the beginning.
(§2) The compounds prepared in Tables 1-10 were tested in three in vitro assays, and the results are shown in Tables 1-10 for Hep3B and Table 11 for SW480 and NCI-H460 shown below. Herein, Hep3B refers to hepatocellular carcinoma cell line, SW480 refers to colon adenocarcinoma cell line, and NCI-H460 refers to human lung cancer cell line.
(§3) Shown in Tables 11 are in vitro activities of exemplary compounds of formula (I).

[2] = test system: Hep3B cells (hepatocellular carcinoma cell line); experiment: In vitro MTS cell viability assay (NCI-60 methodology), Hep3B; details: Homo sapiens, 48 h
Outline: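 Following NCI-60 method, MTS viability of Hep3B measured 24 h after plating (time zero) and after a further 2-day exposure to five concentrations (2-fold series). LC50 defined where [(Ti−Tz)/Tz]×100 = −50.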

[3] = test system: NCI-H460 (human lung cancer cell line); experiment: In vitro MTS cell viability assay (NCI-60 methodology), NCI-H460; details: NCI-H460 cells, read-out: NCI-H460 LC50
Experimental: as §1, §2, §3

[4] = Table 6, MTS, 2 days drug incubation, 50% reduction vs time zero, read-out: Hep3B LC50
[5] = Table 5, MTS, 2 days drug incubation, 50% reduction vs time zero, read-out: Hep3B LC50
[6] = Table 4, MTS, 2 days drug incubation, 50% reduction vs time zero, read-out: Hep3B LC50
[7] = Table 10, MTS, 2 days drug incubation, 50% reduction vs time zero, read-out: Hep3B LC50
[8] = Table 8, MTS, 2 days drug incubation, 50% reduction vs time zero, read-out: Hep3B LC50

## CCOC[C@@H]1CCCN1c1nc(NC(=O)c2ccc([N+](=O)[O-])s2)c2cnn(-c3ccc(F)cc3)c2n1 [Compound 6-104]
[1]
  CC50: 650 nM
[2]; [4]
  LC50: 0.38 µM
[3]
  CC50: 860 nM

## COc1ccc(-c2nc(NC(=O)c3ccc([N+](=O)[O-])s3)c3cnn(-c4ccccc4)c3n2)cn1 [Compound 5-35, N-(6-(6-methoxypyridin-3-yl)-1-phenyl-1H-pyrazolo[3,4-d]pyrimidin-4-yl)-5-nitrothiophene-2-carboxamide]
[1]
  CC50: 1110 nM
[2]; [5]
  LC50: 0.18 µM
[3]
  CC50: 650 nM

## Cc1csc2c(NC(=O)c3ccc([N+](=O)[O-])s3)nc(-c3cccc(OC(F)(F)F)c3)nc12 [Compound 4-5, N-(7-methyl-2-(3-(trifluoromethoxy)phenyl)thieno[3,2-d]pyrimidin-4-yl)-5-nitrothiophene-2-carboxamide]
[1]
  CC50: 3510 nM
[2]; [6]
  LC50: 0.79 µM
[3]
  CC50: 2450 nM

## Cn1ncc2c(NC(=O)c3ccc([N+](=O)[O-])s3)nc(-c3ccc(OC(F)(F)F)cc3)nc21 [Compound 1-5, N-(1-methyl-6-(4-(trifluoromethoxy)phenyl)-1H-pyrazolo[3,4-1]pyrimidin-4-yl)-5-nitrothiophene-2-carboxamide]
[1]
  CC50: 4320 nM
[3]
  CC50: 2850 nM

## Cn1ncc2c(NC(=O)c3ccc([N+](=O)[O-])s3)nc(-c3ccc(C(F)(F)F)cc3)nc21 [Compound 1-4, N-(1-methyl-6-(4-(trifluoromethyl)phenyl)-1H-pyrazolo[3,4-d]pyrimidin-4-yl)-5-nitrothiophene-2-carboxamide]
[1]
  CC50: 6190 nM
[3]
  CC50: 3560 nM

## CCOCCOCCOc1ccc(-c2nc(NC(=O)c3ccc([N+](=O)[O-])s3)c3cnn(-c4ccc(C(C)(C)C)cc4)c3n2)cn1 [Compound 6-83, N-(1-(4-(ter-butyl)phenyl)-6-(6-(2-(2-ethoxyethoxy)ethoxy)pyridin-3-yl)-1H-pyrazolo[3,4-d]pyrimidin-4-yl)-5-nitrothiophene-2-carboxamide]
[2]; [4]
  LC50: 0.41 µM

## Cc1ccn(-c2nc(NC(=O)c3ccc([N+](=O)[O-])s3)c3cnn(-c4ccc(Cl)cc4)c3n2)n1 [Compound 6-46, N-(1-(4-chlorophenyl)-6-(3-methyl-1H-pyrazol-1-yl)-1H-pyrazolo[3,4-d]pyrimidin-4-yl)-5-nitrothiophene-2-carboxamide]
[2]; [4]
  LC50: 0.16 µM

## COCCOc1ccc(-c2nc(NC(=O)c3ccc([N+](=O)[O-])s3)c3cnn(-c4ccccc4)c3n2)cn1 [Compound 5-54, N-(6-(6(2-methoxyethoxy)pyridin-3-yl)-1-phenyl-1H-pyrazolo[3,4-d]pyrimidin-4-yl)-5-nitrothiophene-2-carboxamide]
[2]; [5]
  LC50: 0.34 µM

## O=C(Nc1nc(-c2ccc(C(F)(F)F)cc2)nc2c1cnn2-c1ccc(OC(F)(F)F)cc1)c1ccc([N+](=O)[O-])s1 [Compound 6-88, 5-nitro-N-(1-(4-(trifluoromethoxy)phenyl)-6-(4-(trifluormethyl)phenyl)-1H-pyrazolo[3,4-d]pyrimidin-4-yl)thiophene-2-carboxamide]
[2]; [4]
  LC50: 0.42 µM

## O=C(Nc1nc(-c2ccc(C(F)(F)F)cc2)nc2c1cnn2C1CCC(F)(F)CC1)c1ccc([N+](=O)[O-])s1 [Compound 10-58, N-(1-(4,4-difluorocyclohexyl)-6-(4-(trifluoromethyl)phenyl)-1H-pyrazolo[3,4-d]pyrimidin-4-yl)-5-nitrothiophene-2-carboxamide]
[2]; [7]
  LC50: 0.61 µM

## O=C(Nc1nc(-c2ccc(OCC(F)(F)C(F)F)nc2)nc2c1cnn2C1CCCCC1)c1ccc([N+](=O)[O-])s1 [Compound 10-52, N-(1-cyclohexyl-6-(6-(2,2,3,3-tetrafluoropropoxy)pyridin-3-yl)-1H-pyrazolo[3,4-d]pyrimidin-4-yl)-5-nitrothiophene-2-carboxamide]
[2]; [7]
  LC50: 0.42 µM

## O=C(Nc1nc(-c2ccc(F)cc2)nc2c1cnn2C1CCCCCC1)c1ccc([N+](=O)[O-])s1 [Compound 8-10, N-(1-cycloheptyl-6-(4-fluorophenyl)-1H-pyrazolo[3,4-d]pyrimidin-4-yl)-5-nitrothiophene-2-carboxamide]
[2]; [8]
  LC50: 0.83 µM

## COCCN(C)c1ccc(-c2nc(NC(=O)c3ccc([N+](=O)[O-])s3)c3cnn(-c4cccc(F)c4)c3n2)cn1 [Compound 6-93]
[2]; [4]
  LC50: 0.4 µM

## C[C@@H]1CN(c2nc(NC(=O)c3ccc([N+](=O)[O-])s3)c3cnn(-c4ccc(F)cc4)c3n2)C[C@H](C)O1 [Compound 6-99, N-(6-((2S,6R)-2,6-dimethylmorpholino)-1-(4-fluorophenyl)-1H-pyrazolo[3,4-d]pyrimidin-4-yl)-5-nitrothiophene-2-carboxamide]
[2]; [4]
  LC50: 0.61 µM

## O=C(Nc1nc(-c2cccnc2)nc2c1cnn2C1CCCCC1)c1ccc([N+](=O)[O-])s1 [Compound 10-10, N-(1-cyclohexyl-6-(pyridin-3-yl)-1H-pyrazolo[3,4,d]pyrimidin-4-yl)-5-nitrothiophene-2-carboxamide]
[2]; [7]
  LC50: 0.99 µM

## CC(C)(C)c1ccc(-n2ncc3c(NC(=O)c4ccc([N+](=O)[O-])s4)nc(OCC(F)(F)C(F)F)nc32)cc1 [Compound 6-59, N-(1-(4-(tert-butyl)phenyl)-6-(2,2,3,3-tetrafluoropropoxy)-1H-pyrazolo[3,4-d]pyrimidin-4-yl)-5-nitrothiophene-2-carboxamide]
[2]; [4]
  LC50: 0.5 µM

## CC(C)(C)n1ncc2c(NC(=O)c3ccc([N+](=O)[O-])s3)nc(-c3ccc(C(F)(F)F)cc3)nc21 [Compound 1-26, N-(1-(tert-butyl)-6-(4-(trifluoromethyl)phenyl)-1H-pyrazolo[3,4,d]pyrimidin-4-yl)-5-nitrothiophene-2-carboxamide]
[2]; Table 1, MTS, 2 days drug incubation, 50% reduction vs time zero, read-out: Hep3B LC50
  LC50: 0.79 µM

## CC(C)(C)[Si](C)(C)OC1CN(c2nc(NC(=O)c3ccc([N+](=O)[O-])s3)c3cnn(-c4ccc(OC(F)(F)F)cc4)c3n2)C1 [Compound 6-84]
[2]; read-out: Hep3B LC50 (uM)
  LC50: 1.13 µM

## Cc1csc2c(NC(=O)c3ccc([N+](=O)[O-])s3)nc(-c3ccc(C(F)(F)F)cc3F)nc12 [Compound 4-14, N-(2-(2-fluoro-4-(trifluoromethyl)phenyl)-7-methylthieno[3,2-d]pyrimidin-4-yl)-5-nitrothiophene-2-carboxamide]
[2]; [6]
  LC50: 1.35 µM

## O=C(Nc1nc(-c2cccc(Cl)c2)nc2c1cnn2-c1cccc(Cl)c1)c1ccc([N+](=O)[O-])s1 [Compound 6-37, N-(1,6-bis(3-chlorophenyl)-1H-pyrazolo[3,4-d]pyrimidin-4-yl)-5-nitrothiophene-2-carboxamide]
[2]; [4]
  LC50: 0.23 µM

## COc1ccc(-n2ncc3c(NC(=O)c4ccc([N+](=O)[O-])s4)nc(C4=CCC(C)(C)CC4)nc32)cc1 [Compound 6-29, N-(6-(4,4-dimethylcyclohex-1-en-1-yl)-1-(4-methoxyphenyl)-1H-pyrazolo[3,4-d]pyrimidin-4-yl)-5-nitrothiophene-2-carboxamide]
[2]; [4]
  LC50: 0.82 µM

## CN(C)CCOc1nc(NC(=O)c2ccc([N+](=O)[O-])s2)c2cnn(-c3ccccc3)c2n1 [Compound 5-11, N-(6-(2-(dimethylamino)ethoxy)-1-phenyl-1H-pyrazolo[3,4-d]pyrimidin-4-yl)-5-nitrothiophene-2-carboxamide]
[2]; [5]
  LC50: 4.13 µM

## CC(C)(C)c1ccc(-n2ncc3c(NC(=O)c4ccc([N+](=O)[O-])s4)nc(N4CCCC4)nc32)cc1 [Compound 6-62, N-(1-(4-(tert-butyl)phenyl)-6-(pyrrolidin-1-yl)-1H-pyrazolo[3,4-d]pyrimidin-4-yl)-5-nitrothiophene-2-carboxamide]
[2]; [4]
  LC50: 0.71 µM

## CC(=O)N1CC[C@H](n2ncc3c(NC(=O)c4ccc([N+](=O)[O-])s4)nc(-c4ccc(F)nc4)nc32)C1 [Compound 8-2, (S)—N-(1-(1-acetylpyrrolidin-3-yl)-6-(6-fluoropyridin-3-yl)-1H-pyrazolo[3,4-d]pyrimidin-4-yl)-5-nitrothiophene-2-carboxamide]
[2]; [8]
  LC50: > 3 µM

## O=C(Nc1nc(-c2ccccc2F)nc2c1cnn2C1CCCCC1)c1ccc([N+](=O)[O-])s1 [Compound 10-11, N-(1-cyclohexyl-6-(2-fluorophenyl)-1H-pyrazolo[3,4-d]pyrimidin-4-yl)-5-nitrothiophene-2-carboxamide]
[2]; [7]
  LC50: 1.94 µM

## O=C(Nc1nc(-c2ccc(F)cc2)nc2c1cnn2C1CCC(F)(F)CC1)c1ccc([N+](=O)[O-])s1 [Compound 10-54, N-(1-(4,4-difluorocyclohexyl)-6-(4-fluorphenyl)-1H-pyrazolo[3,4-d]pyrimidin-4-yl)-5-nitrothiophene-2-carboxamide]
[2]; [7]
  LC50: 0.92 µM
